In patent US9194802B2, “Luminescent probes having a phenanthridinyl antenna, and methods of use” (REGENTS OF THE UNIVERSITY OF MINNESOTA, priority 2012, dated 2015):

Legend:
UMP = test: Stern-Volmer time-delayed luminescence quenching titration with UMP; type: binding; settings: excitation 346 nm, time-delay 0.1 ms, probe 10 μM, water, Tris 10 mM, pH 7.0, 20° C., n=3, emission integrated 450-650 nm (Tb) or 550-750 (Eu)
Method: (§1) Unless otherwise noted, starting materials were obtained from commercial suppliers and used without further purification. Water was deionized and further purified by a Millipore cartridge system (resistivity 1.8×10^7Ω). All organic extracts were dried over anhydrous MgSO4 and solvents were removed with a rotary evaporator. Flash chromatography was performed on Salicycle Silica Gel (230-400 mesh) or Brockmann activated aluminum oxide (neutral, 60 mesh). ^1H NMR spectra were recorded on a Varian 300 or Varian 500 at 300 MHz or 500 MHz, respectively, and ^13C NMR spectra on a Varian 300 at 75 MHz; the residual solvent peak was used as an internal reference. Data for ^1H NMR are recorded as follows: chemical shift (δ, ppm), multiplicity (s, singlet; br s, broad singlet; d, doublet, t, triplet; q, quartet; m, multiplet), integration, coupling constant (Hz). Data for ^13C NMR are reported in terms of chemical shift (δ, ppm). Mass spectra (LR=lo2w resolution; HR=high resolution; MS-ESI=electrospray mass spectrometry) were recorded on a Bruker BioTOF II. Purity of lanthanide complexes was evaluated by high performance liquid chromatography (HPLC) using a Varian Microsorb 300-5 C18 250 mm×4.6 mm at a flow rate was 1.0 mL/min (see supporting information for spectra and solvent gradients). UV-Vis data was obtained on a Cary Bio 100 UV-Vis Spectrophotometer. Data was collected over the range of 200-800 nm. Fluorescence data was acquired on a Varian Cary Eclipse Fluorescence Spectrophotometer using a quartz cell with a path length of 10 mm, excitation slit width of 5 nm and emission slit width of 5 nm at T=20° C. Solutions were not degased prior to measurement of their luminescence spectra and lifetimes.

ATP = test: Stern-Volmer time-delayed luminescence quenching titration with ATP; type: binding; settings: for Stern-Volmer constant KSV with ATP: excitation 346 nm, time-delay 0.1 ms, probe 10 μM, water, Tris 10 mM, pH 7.0, 20° C., n=3, emission integrated 450-650 nm (Tb) or 550-750 (Eu); for log KSV for ATP: from Stern-Volmer constants of Table 2
Method: as §1

UDP = test: Stern-Volmer time-delayed luminescence quenching titration with UDP; type: binding; settings: excitation 346 nm, time-delay 0.1 ms, probe 10 μM, water, Tris 10 mM, pH 7.0, 20° C., n=3, emission integrated 450-650 nm (Tb) or 550-750 (Eu)
Method: as §1

UTP = test: Stern-Volmer time-delayed luminescence quenching titration with UTP; type: binding; settings: excitation 346 nm, time-delay 0.1 ms, probe 10 μM, water, Tris 10 mM, pH 7.0, 20° C., n=3, emission integrated 450-650 nm (Tb) or 550-750 (Eu)
Method: as §1

GTP = test: Stern-Volmer time-delayed luminescence quenching titration with GTP; type: binding; settings: for Stern-Volmer constant KSV with GTP: excitation 346 nm, time-delay 0.1 ms, probe 10 μM, water, Tris 10 mM, pH 7.0, 20° C., n=3, emission integrated 450-650 nm (Tb) or 550-750 (Eu)
Method: as §1

CTP = test: Stern-Volmer time-delayed luminescence quenching titration with CTP; type: binding; settings: excitation 346 nm, time-delay 0.1 ms, probe 10 μM, water, Tris 10 mM, pH 7.0, 20° C., n=3, emission integrated 450-650 nm (Tb) or 550-750 (Eu)
Method: as §1

GDP = test: Stern-Volmer time-delayed luminescence quenching titration with GDP; type: binding; settings: excitation 346 nm, time-delay 0.1 ms, probe 10 μM, water, Tris 10 mM, pH 7.0, 20° C., n=3, emission integrated 450-650 nm (Tb) or 550-750 (Eu)
Method: as §1

[1] = system: PKAc, the catalytic domain of protein kinase A; test: Continuous monitoring of ATP to ADP conversion during phosphorylation of KRRWSAP-NH2 by PKAc; type: biochemical; settings: both probes 10 μM, PKAc 1 μM, peptide 1.5 mM, ATP 1 mM, 37° C., 0-6 hours; Tb at 490 and 545 nm, Eu at 688 and 700 nm
Method: FIG. 29 illustrates an exemplary embodiment of continuous monitoring of ATP to ADP conversion during enzymatic phosphorylation of the peptide KRRWSAP-NH2 by its kinase PKAc. Experimental conditions: [Tb-DOTAm-Phen]^3+=10 μM, Eu-DOTA-Phen=10 μM, [PKAc]=1 μM, [amide-blocked KRRWSAP-NH2]=1.5 mM, [ATP]=1 mM, [Tris]=10 mM, [Brij-35]=0.05%, [MgCl2]=50 mM, [EGTA]=5 mM, [DTT]=2 mM, pH 7.0, T=37° C., excitation at 346 nm, time delay=0.1 ms. Reaction time: 0-6 hours.
The ability of the two lanthanide probes to monitor enzymatic reactions involving ATP or GTP directly and continuously was evaluated with PKAc, the catalytic domain of protein kinase A. PKAc is a serine-threonine protein kinase that is actively studied as a biological target in cancer therapy (Naviglio et al., Expert Opin. Ther. Targets, 2009, 13, 83-92). […] Phosphorylation of the substrate and conversion of ATP to ADP takes place only when all components are present in the buffer. […] [Tb-DOTAm-Phen]^3+ and Eu-DOTA-Phen are thus able to directly monitor kinases' activities by time-gated luminescence spectroscopy. […] It should be noted, however, that these probes are not intended for use in cells as the presence of more than two purine nucleotides would make the results hard to interpret.

CDP = test: Stern-Volmer time-delayed luminescence quenching titration with CDP; type: binding; settings: excitation 346 nm, time-delay 0.1 ms, probe 10 μM, water, Tris 10 mM, pH 7.0, 20° C., n=3, emission integrated 450-650 nm (Tb) or 550-750 (Eu)
Method: as §1

AMP = test: Stern-Volmer time-delayed luminescence quenching titration with AMP; type: binding; settings: for Stern-Volmer constant KSV with AMP: excitation 346 nm, time-delay 0.1 ms, probe 10 μM, water, Tris 10 mM, pH 7.0, 20° C., n=3, emission integrated 450-650 nm (Tb) or 550-750 (Eu)
Method: as §1

ADP = test: Stern-Volmer time-delayed luminescence quenching titration with ADP; type: binding; settings: for Stern-Volmer constant KSV with ADP: excitation 346 nm, time-delay 0.1 ms, probe 10 μM, water, Tris 10 mM, pH 7.0, 20° C., n=3, emission integrated 450-650 nm (Tb) or 550-750 (Eu)
Method: as §1

CMP = test: Stern-Volmer time-delayed luminescence quenching titration with CMP; type: binding; settings: excitation 346 nm, time-delay 0.1 ms, probe 10 μM, water, Tris 10 mM, pH 7.0, 20° C., n=3, emission integrated 450-650 nm (Tb) or 550-750 (Eu)
Method: as §1

GMP = test: Stern-Volmer time-delayed luminescence quenching titration with GMP; type: binding; settings: excitation 346 nm, time-delay 0.1 ms, probe 10 μM, water, Tris 10 mM, pH 7.0, 20° C., n=3, emission integrated 450-650 nm (Tb) or 550-750 (Eu)
Method: as §1

[2] = Dickins et al., J. Am. Chem. Soc., 2002; cited from earlier work

Molecule: Tb-PhenDOTAm
- Stern-Volmer constant KSV with UMP (UMP): 0.070 ± 0.004
- Stern-Volmer constant KSV with UMP (UMP; listed as [Tb-DOTAm-Phen]^3+): 0.070(4)
- time-gated luminescence quenched by ATP (ATP; 1 mM ATP): 59.7%
- Stern-Volmer constant KSV with ATP (ATP): 1.28 ± 0.05
- Stern-Volmer constant KSV with ATP (ATP; listed as [Tb-DOTAm-Phen]^3+): 1.28(5)
- log KSV for ATP (ATP): 0.11
- Stern-Volmer constant KSV with UDP (UDP): 0.065 ± 0.007
- Stern-Volmer constant KSV with UDP (UDP; listed as [Tb-DOTAm-Phen]^3+): 0.065(7)
- Stern-Volmer constant KSV with UTP (UTP): 0.047 ± 0.002
- Stern-Volmer constant KSV with UTP (UTP; listed as [Tb-DOTAm-Phen]^3+): 0.047(2)
- increase of apparent binding affinity for GTP over that of the neutral complex (12) (GTP; +3 charged probe (1) versus neutral complex (12)): 300 fold
- Stern-Volmer constant KSV with GTP (GTP): 33.1 ± 0.1
- Stern-Volmer constant KSV with GTP (GTP; listed as [Tb-DOTAm-Phen]^3+): 33.1(1)
- Stern-Volmer constant KSV with CTP (CTP): 0.103 ± 0.007
- Stern-Volmer constant KSV with CTP (CTP; listed as [Tb-DOTAm-Phen]^3+): 0.103(7)
- Stern-Volmer constant KSV with GDP (GDP): 9.84 ± 0.05
- Stern-Volmer constant KSV with GDP (GDP; listed as [Tb-DOTAm-Phen]^3+): 9.84(5)
- time-gated luminescence as the PKAc reaction proceeds (ADP:ATP ratio increases) [1]: increases
- Stern-Volmer constant KSV with CDP (CDP): 0.149 ± 0.009
- Stern-Volmer constant KSV with CDP (CDP; listed as [Tb-DOTAm-Phen]^3+): 0.149(9)
- phosphorescence quenched by AMP (AMP; 1 mM AMP): 31.0%
- Stern-Volmer constant KSV with AMP (AMP): 0.397 ± 0.005
- Stern-Volmer constant KSV with AMP (AMP; listed as [Tb-DOTAm-Phen]^3+): 0.397(5)
- phosphorescence quenched by ADP (ADP; 1 mM ADP): 47.4%
- Stern-Volmer constant KSV with ADP (ADP): 0.85 ± 0.02
- Stern-Volmer constant KSV with ADP (ADP; listed as [Tb-DOTAm-Phen]^3+): 0.85(2)
- Stern-Volmer constant KSV with CMP (CMP): 0.139 ± 0.006
- Stern-Volmer constant KSV with CMP (CMP; listed as [Tb-DOTAm-Phen]^3+): 0.139(6)
- Stern-Volmer constant KSV with GMP (GMP): 2.84 ± 0.01
- Stern-Volmer constant KSV with GMP (GMP; listed as [Tb-DOTAm-Phen]^3+): 2.84(1)

Molecule: Eu-DOTA-Phen
- Stern-Volmer constant KSV with UMP (UMP): 0.007(2)
- Stern-Volmer constant KSV with ATP (ATP): 0.065(1)
- log KSV for ATP (ATP): −1.2
- Stern-Volmer constant KSV with UDP (UDP): 0.002(2)
- Stern-Volmer constant KSV with UTP (UTP): 0.001(2)
- Stern-Volmer constant KSV with GTP (GTP): 0.099(1)
- Stern-Volmer constant KSV with CTP (CTP): 0.006(1)
- Stern-Volmer constant KSV with GDP (GDP): 0.164(3)
- time-gated luminescence as the PKAc reaction proceeds (ADP:ATP ratio increases) [1]: remains constant
- Stern-Volmer constant KSV with CDP (CDP): 0.008(1)
- Stern-Volmer constant KSV with AMP (AMP): 0.053(1)
- Stern-Volmer constant KSV with ADP (ADP): 0.058(1)
- Stern-Volmer constant KSV with CMP (CMP): 0.008(1)
- Stern-Volmer constant KSV with GMP (GMP): 0.118(2)

Molecule: O=C([O-])CN1CCN(CC(=O)[O-])CCN(CC(=O)O)CCN(CC(=O)[O-])CC1.[Gd+3] [Gd-DOTA]
- log Ka with biphosphate [2]: 2.2
